Source: patent US20130209403A1, “USE OF INHIBITORS OF PHOSPHOLIPASE A2 FOR THE TREATMENT OR PREVENTION OF FLAVIVIRUS INFECTION” (Ruprecht-Karls-Universitaet, priority 2010, published 2013)

Legend:
[1] = test system: HCV; settings: Jc1-transfected cells, 0, 5, 10 and 20 μM, added 42 h after transfection
Experimental: This example employs a standard bioassay for determining the effect of the cPLA2α inhibitor pyrrolidine-2 on the production of Jc1-transfected cells. The general assay set up is shown in
(§1) FIG. 2. The assay was performed according to standard protocols and materials were purchased from commercial suppliers and used according to respective manuals supplied therewith. Pyrrolidine-2 was added to the cells 42 h after transfection at 42 the indicated final concentrations of 0, 5, 10 and 20 μM.

[2] = 20 μm pyrrolidine-2 compared to DMSO; FIG. 5
Experimental: (§2) The assay was performed according to standard protocols and materials were purchased from commercial suppliers and used according to respective manuals supplied therewith.

[3] = test system: HCV; settings: 20 μm pyrrolidine-2 vs untreated cells; FIG. 4B
Experimental: as §2

[4] = test system: HCV core protein; settings: lipid droplet fractions; 20 μm pyrrolidine-2 vs untreated cells; FIG. 8A-C
Source text: Standard ELISA and Western Blot protocols were used for the analysis of lipid droplet fractions of untreated cells and cells treated with 20 μm pyrrolidine-2.

[5] = test system: DENV; settings: Huh-7.5 cells, DV-R2A, 0, 5, 10 and 20 μM, added 42 h after transfection
Experimental: as §1, with “This example employs a standard bioassay for determining the effect of the cPLA2α inhibitor pyrrolidine-2 on the production of Huh-7.5 cells transfected with dengue virus RNA DV-R2A.” for “FIG. 2.”, “at” for “at 42”

[6] = test system: HCV; settings: 20 μm pyrrolidine-2 vs untreated cells, FIG. 7
[7] = test system: ApoB; settings: Mock- and Jc1-transfected cells; 20 μm pyrrolidine-2; FIG. 9
Source text: (§3) A standard ELISA protocol was employed for assessing the relevance of cPLA2α activity for release of lipoproteins carrying ApoB and ApoE.

[8] = test system: ApoE; settings: Mock- and Jc1-transfected cells; 20 μm pyrrolidine-2; FIG. 9
Source text: as §3

[9] = test system: DENV; assay: Infectivity of DENV, limiting dilution titration assay
Source text: A standard limiting dilution titration assay was employed for assessing the relevance of cPLA2α activity for release of infectious DENV particles.

## CC(C)CN(Cc1ccccc1-c1ccccc1)[C@@H]1C[C@@H](CNC(=O)C=Cc2ccc(C=C3SC(=O)NC3=O)cc2)N(C(=O)c2ccccc2C(=O)c2ccc(F)cc2F)C1.Cl [pyrrolidine-2, N-{(2S,4R)-4-(Biphenyl-2-ylmethyl-isobutyl-amino)-1-[2-(2,4-difluorobenzoyl)-benzoyl]-pyrrolidin-2-ylmethyl}-3-[4-(2,4-dioxothiazolidin-5-ylidenemethyl)-phenyl]acrylamide, HCl]
[1]; FIG. 3A
  RNA replication of HCV: not affected
[1]; FIG. 3B
  release of infectious HCV particles: potently inhibited in a dose-dependent manner
[2]
  cytotoxicity: did not show any cytotoxicity
[3]
  viral entry: does not influence viral entry
[4]
  quantity of lipid droplet associated core protein: reduced
[5]; FIG. 11A
  RNA replication of DENV: only slightly affected
[5]; FIG. 11B
  release of infectious DENV particles: potently inhibited in a dose-dependent manner
[6]
  lowering of intracellular virus titer: about 10 fold
  reduction of extracellular virus titers: 100 fold
[7]
  reduction of the quantity of secreted ApoB: more than 50%
[8]
  reduction of the quantity of secreted ApoE: more than 50%
[9]; particles produced in the absence of the inhibitor, then treated with 20 μm pyrrolidine-2, FIG. 12B
  inactivation of released infectious DENV particles: does not inactivate released infectious particles
[9]; transfected Huh-7.5 cells treated with 20 μm pyrrolidine-2, FIG. 12A
  reduction of the quantity of released infectious DENV particles: more than 3 orders of magnitude
